# Experimental data as given in ChEMBL document CHEMBL1156112, “Discovery of 3-(1H-indol-3-yl)-4-[2-(4-methylpiperazin-1-yl)quinazolin-4-yl]pyrrole-2,5-dione (AEB071), a potent and selective inhibitor of protein kinase C isotypes” (J Med Chem, 2009).
# Columns and labels:
# [1] = biological target: Protein kinase C alpha type (Homo sapiens, UniProt P17252); assay: Inhibition of PKCalpha by SPA
# [2] = biological target: Protein kinase C beta type (Homo sapiens, UniProt P05771); assay: Inhibition of PKCbeta1 by SPA
# Chain of Protein kinase C beta type (P05771 whole entry): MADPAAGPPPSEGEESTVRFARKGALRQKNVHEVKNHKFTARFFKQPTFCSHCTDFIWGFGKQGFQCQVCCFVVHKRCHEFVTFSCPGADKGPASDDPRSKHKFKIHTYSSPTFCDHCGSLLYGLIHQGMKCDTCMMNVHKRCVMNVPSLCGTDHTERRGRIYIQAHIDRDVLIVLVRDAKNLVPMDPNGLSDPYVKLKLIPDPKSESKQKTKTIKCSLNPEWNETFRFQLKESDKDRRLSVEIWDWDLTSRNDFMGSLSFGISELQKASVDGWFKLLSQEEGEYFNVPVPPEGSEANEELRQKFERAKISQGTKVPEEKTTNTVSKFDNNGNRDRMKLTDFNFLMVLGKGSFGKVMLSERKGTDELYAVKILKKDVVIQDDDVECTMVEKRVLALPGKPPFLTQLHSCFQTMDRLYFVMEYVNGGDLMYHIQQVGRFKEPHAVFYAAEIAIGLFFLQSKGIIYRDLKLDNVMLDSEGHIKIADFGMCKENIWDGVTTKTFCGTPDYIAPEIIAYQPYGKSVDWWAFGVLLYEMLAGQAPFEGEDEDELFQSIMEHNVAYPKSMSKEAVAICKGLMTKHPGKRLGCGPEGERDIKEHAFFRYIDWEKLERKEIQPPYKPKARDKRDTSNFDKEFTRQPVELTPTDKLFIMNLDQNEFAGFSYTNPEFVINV
# [3] = biological target: Protein kinase C delta type (Homo sapiens, UniProt Q05655); assay: Inhibition of PKCdelta by SPA
# Chain of Protein kinase C delta type (Q05655 whole entry): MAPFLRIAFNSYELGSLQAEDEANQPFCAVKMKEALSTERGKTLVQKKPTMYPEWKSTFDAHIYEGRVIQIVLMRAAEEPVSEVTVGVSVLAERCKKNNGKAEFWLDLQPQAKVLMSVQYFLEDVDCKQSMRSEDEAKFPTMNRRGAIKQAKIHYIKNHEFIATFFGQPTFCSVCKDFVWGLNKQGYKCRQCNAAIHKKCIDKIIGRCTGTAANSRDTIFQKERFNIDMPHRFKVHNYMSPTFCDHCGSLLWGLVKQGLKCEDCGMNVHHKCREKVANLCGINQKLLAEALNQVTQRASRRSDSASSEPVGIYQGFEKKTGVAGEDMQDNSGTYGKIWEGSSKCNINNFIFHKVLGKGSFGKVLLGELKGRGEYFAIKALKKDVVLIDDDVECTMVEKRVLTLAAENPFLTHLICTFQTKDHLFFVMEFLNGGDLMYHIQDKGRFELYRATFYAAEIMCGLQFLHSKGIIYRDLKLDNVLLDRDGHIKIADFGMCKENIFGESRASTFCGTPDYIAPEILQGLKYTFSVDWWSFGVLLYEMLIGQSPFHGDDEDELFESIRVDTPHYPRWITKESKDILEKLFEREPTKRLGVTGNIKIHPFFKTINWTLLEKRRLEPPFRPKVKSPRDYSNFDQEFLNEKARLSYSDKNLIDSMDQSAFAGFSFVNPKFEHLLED
# [4] = biological target: T1, Protein kinase C epsilon type (Homo sapiens, UniProt Q02156); assay: Inhibition of PKCepsilon by SPA
# T1 sequence (Q02156 whole entry): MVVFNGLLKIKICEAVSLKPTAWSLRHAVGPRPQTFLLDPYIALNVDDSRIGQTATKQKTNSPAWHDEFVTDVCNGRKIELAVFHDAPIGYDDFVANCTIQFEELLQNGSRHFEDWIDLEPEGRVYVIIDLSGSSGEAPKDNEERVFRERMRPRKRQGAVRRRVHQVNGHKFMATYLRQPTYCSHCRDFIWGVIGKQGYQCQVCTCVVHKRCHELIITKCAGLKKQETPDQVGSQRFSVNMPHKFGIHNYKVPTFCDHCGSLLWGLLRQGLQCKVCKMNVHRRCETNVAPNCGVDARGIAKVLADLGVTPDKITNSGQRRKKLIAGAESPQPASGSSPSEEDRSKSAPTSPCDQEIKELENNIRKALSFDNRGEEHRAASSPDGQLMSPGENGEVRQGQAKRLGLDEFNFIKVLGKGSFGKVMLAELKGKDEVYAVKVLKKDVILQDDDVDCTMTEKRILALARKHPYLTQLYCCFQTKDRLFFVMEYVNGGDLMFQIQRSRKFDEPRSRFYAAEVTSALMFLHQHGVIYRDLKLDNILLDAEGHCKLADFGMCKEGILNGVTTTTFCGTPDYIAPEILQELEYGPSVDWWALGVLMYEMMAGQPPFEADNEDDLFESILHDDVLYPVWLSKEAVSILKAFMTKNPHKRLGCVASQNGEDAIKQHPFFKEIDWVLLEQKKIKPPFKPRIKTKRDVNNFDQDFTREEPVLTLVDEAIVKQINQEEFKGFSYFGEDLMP
# [5] = biological target: Protein kinase C eta type (Homo sapiens, UniProt P24723); assay: Inhibition of PKCeta by SPA
# Chain of Protein kinase C eta type (P24723 whole entry): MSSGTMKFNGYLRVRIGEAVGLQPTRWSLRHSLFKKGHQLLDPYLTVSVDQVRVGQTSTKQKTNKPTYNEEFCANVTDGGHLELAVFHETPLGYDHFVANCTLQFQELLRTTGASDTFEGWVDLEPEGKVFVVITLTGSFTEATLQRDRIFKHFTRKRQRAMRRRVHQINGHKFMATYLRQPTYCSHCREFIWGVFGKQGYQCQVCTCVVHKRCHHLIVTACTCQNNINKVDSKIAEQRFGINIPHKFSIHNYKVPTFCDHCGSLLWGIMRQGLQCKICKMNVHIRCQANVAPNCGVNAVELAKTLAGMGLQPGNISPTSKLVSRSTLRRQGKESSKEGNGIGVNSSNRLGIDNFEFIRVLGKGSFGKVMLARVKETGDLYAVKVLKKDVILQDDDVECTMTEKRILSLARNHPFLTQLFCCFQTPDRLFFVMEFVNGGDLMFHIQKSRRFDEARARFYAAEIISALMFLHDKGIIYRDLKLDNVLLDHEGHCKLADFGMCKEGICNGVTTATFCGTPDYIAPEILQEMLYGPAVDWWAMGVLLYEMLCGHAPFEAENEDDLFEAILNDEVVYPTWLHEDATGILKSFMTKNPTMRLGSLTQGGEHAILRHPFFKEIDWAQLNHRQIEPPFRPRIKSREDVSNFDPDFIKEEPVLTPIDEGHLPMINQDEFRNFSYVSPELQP
# [6] = biological target: Protein kinase C theta type (Homo sapiens, UniProt Q04759); assay: Inhibition of PKCtheta by SPA
# Chain of Protein kinase C theta type (Q04759 whole entry): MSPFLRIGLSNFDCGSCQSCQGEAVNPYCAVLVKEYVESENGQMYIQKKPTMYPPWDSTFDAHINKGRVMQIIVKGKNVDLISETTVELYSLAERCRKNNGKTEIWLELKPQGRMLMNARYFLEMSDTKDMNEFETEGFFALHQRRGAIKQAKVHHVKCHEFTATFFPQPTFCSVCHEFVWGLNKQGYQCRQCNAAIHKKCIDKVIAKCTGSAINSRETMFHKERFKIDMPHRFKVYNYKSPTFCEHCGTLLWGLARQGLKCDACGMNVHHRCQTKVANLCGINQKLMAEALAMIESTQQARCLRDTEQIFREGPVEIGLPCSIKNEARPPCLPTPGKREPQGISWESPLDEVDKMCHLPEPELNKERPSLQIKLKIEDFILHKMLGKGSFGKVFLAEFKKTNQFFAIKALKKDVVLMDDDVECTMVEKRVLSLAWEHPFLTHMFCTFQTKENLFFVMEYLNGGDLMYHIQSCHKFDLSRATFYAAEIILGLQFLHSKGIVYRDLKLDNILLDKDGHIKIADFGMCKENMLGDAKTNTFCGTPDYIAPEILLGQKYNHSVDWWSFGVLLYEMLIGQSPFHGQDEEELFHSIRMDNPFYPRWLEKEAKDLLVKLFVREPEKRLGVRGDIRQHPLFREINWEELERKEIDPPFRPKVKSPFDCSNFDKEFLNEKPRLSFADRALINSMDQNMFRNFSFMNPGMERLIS
# cells = conditions: Homo sapiens, Jurkat
Compound,IC50 [1] [nM],IC50 [2] [nM],IC50 [3] [nM],IC50 [4] [nM],IC50 [5] [nM],IC50 [6] [nM],IC50 (cells) [nM]
CN(C)CCCn1cc(C2=C(c3c[nH]c4ccccc34)C(=O)NC2=O)c2ccccc21 [GF-109203],2.3,1.6,8.7,6.6,10,6.7,–
CN(C)CCCn1cc(C2=C(c3n[nH]c4ccccc34)C(=O)NC2=O)c2ccccc21,> 315,> 315,> 315,> 315,> 315,> 315,–
CN(C)CCCn1cc(C2=C(c3csc4ccccc34)C(=O)NC2=O)c2ccccc21,73,47,183,285,293,255,–
CN(C)CCCn1cc(C2=C(c3cccc4ccccc34)C(=O)NC2=O)c2ccccc21,98,60,207,> 315,349,165,–
CN(C)CCOc1cccc(C2=C(c3c[nH]c4ccccc34)C(=O)NC2=O)c1,15,58,47,29,47,52,668
